Assay [1] addresses T1, ECL (Erythrina cristagalli lectin) (Erythrina crista-galli, UniProt P83410).
T1 sequence (P83410 1-239): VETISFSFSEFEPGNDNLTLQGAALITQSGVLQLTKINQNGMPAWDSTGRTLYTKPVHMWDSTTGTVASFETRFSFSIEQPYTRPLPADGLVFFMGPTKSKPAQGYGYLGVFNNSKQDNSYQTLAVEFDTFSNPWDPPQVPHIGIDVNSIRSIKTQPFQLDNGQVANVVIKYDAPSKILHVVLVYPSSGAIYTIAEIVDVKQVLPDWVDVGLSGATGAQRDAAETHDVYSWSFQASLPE
In words: Protein BLI inhibition. Format: binding. As to conditions: for ΔG: binding free energy from BLI KD, standard deviations in parentheses; for affinity for ECL (result in words): BLI.

Assay [2] has as its target T1, ECL (Erythrina cristagalli lectin). Conditions: cited from earlier work.
Assay [3] has the same target. As to conditions: cited from earlier work. This is another data set of the same source.
Assay [4] shares this target. The experiment in a line: Isothermal titration calorimetry. Conditions: relative to 1. Format: binding.
Assay [5] shares this target. As to conditions: cited from earlier work. This is another data set of the same source.

Each structure is given as a SMILES string. Read-outs that look alike come from different tables or passages of the source.

The text below walks through data of article PMC6442460 (Journal of chemical information and modeling, 2018).

For `C[C@@H]1O[C@@H](O[C@H]2[C@H](O[C@H]3[C@H](O)[C@@H](O)C(O)O[C@@H]3CO)O[C@H](CO)[C@H](O)[C@@H]2O)[C@@H](O)[C@H](O)[C@@H]1O` (stereo partly shown) [ligand 5, fucosylated lactose], the ΔG result in assay [1] is “–5.04 (0.06) kcal/mol”. For the same compound, the “reference ΔG” value in assay [2] (ITC at 25 °C) is “–4.8 (<0.1) kcal/mol”. Also, the “binding in glycan array screening of ECL” value in assay [3] is recorded as “nonbinders”.
Regarding `OC[C@H]1OC(O)[C@H](O)[C@@H](O)[C@H]1O` (stereo partly drawn) [D-Gal, reference compound], the “reference ΔG” value in assay [2] (ITC at 25 °C) is given as “–4.0 (<0.1) kcal/mol”.
As for `CC(=O)N[C@H]1[C@H](O[C@H]2[C@H](O)[C@@H](NC(C)=O)C(O)O[C@@H]2CO)O[C@H](CO)[C@H](O)[C@@H]1O` (stereo partly shown) [ligand 4, N,N-diacetyllactosamine], in assay [3], the “binding in glycan array screening of ECL” value is “binders”.
In the case of `CC(=O)N[C@H]1C(O)O[C@H](CO)[C@@H](O[C@@H]2O[C@H](CO)[C@H](O)[C@H](O)[C@H]2O)[C@@H]1O` (stereo partly shown) [ligand 3, N-acetyllactosamine], the ΔG entry in assay [1] was “–5.66 (0.04) kcal/mol”. Also, the “reference ΔG” value in assay [2] (ITC at 27 °C) is “–5.5 (0.1) kcal/mol”. Besides, in assay [3], the “binding in glycan array screening of ECL” value was “binders”. In addition, in assay [4], the “fold higher affinity of ECL” value was “about 3 fold”.
As to `CC(=O)N[C@H]1C(O)O[C@H](CO)[C@@H](O)[C@@H]1O` (stereo partly drawn) [D-GlcNAc], the “inhibitory power relative to D-Gal (result in words)” value (“inhibitory power relative to D-Gal” below) in assay [5] was “poor inhibitors”.
`C[C@@H]1OC(O)[C@@H](O)[C@H](O)[C@@H]1O` (stereo partly drawn) [L-Fuc]: the “inhibitory power relative to D-Gal” value in assay [5] is “poor inhibitors”.
With `OC[C@H]1OC(O)[C@H](O)[C@@H](O)[C@@H]1O` (stereo partly drawn) [D-Glc], the “inhibitory power relative to D-Gal” value in assay [5] is given as “poor inhibitors”.
For the compound `O=C[C@H](O)[C@@H](O)[C@H](O[C@@H]1O[C@H](CO)[C@@H](O)[C@H](O)[C@H]1O)[C@H](O)CO` [ligand 7, cellobiose], in assay [1], the “affinity for ECL (result in words)” value is reported as “Neither cellobiose (Glcβ1–4Glcβ, 7) nor maltose (Glcα1–4Glcβ, 8) shows any measurable affinity”.
Same read-out and setting: then `OC[C@H]1O[C@H](O[C@H]2[C@H](O)[C@@H](O)[C@H](O)O[C@@H]2CO)[C@H](O)[C@@H](O)[C@@H]1O` [ligand 8, maltose], with “Neither cellobiose (Glcβ1–4Glcβ, 7) nor maltose (Glcα1–4Glcβ, 8) shows any measurable affinity”.
Consider `CC(=O)N[C@H]1C(O)O[C@H](CO)[C@@H](O[C@@H]2O[C@H](CO)[C@H](O)[C@H](O)[C@H]2O[C@@H]2O[C@@H](C)[C@@H](O)[C@@H](O)[C@@H]2O)[C@@H]1O` (stereo partly shown) [ligand 6, fucosylated N-acetyllactosamine], for which the ΔG result in assay [1] is reported as “–6.21 (0.14) kcal/mol”. Also, the “binding in glycan array screening of ECL” value in assay [3] was “binders”.
Consider `OC[C@H]1O[C@@H](O[C@H]2[C@H](O)[C@H](O)C(O)O[C@@H]2CO)[C@H](O)[C@@H](O)[C@H]1O` (stereo partly drawn) [ligand 2, epi-lactose], for which the ΔG entry in assay [1] is “–5.08 (0.02) kcal/mol”.
`O=C[C@@H](O)[C@H](O)[C@H](O)CO` [D-Ara]: in assay [5], the “inhibitory power relative to D-Gal” value was “poor inhibitors”.
For `OC[C@H]1O[C@@H](O[C@H]2[C@H](O)[C@@H](O)[C@H](O)O[C@@H]2CO)[C@H](O)[C@@H](O)[C@H]1O` [ligand 1, lactose], the ΔG entry in assay [1] was “–4.83 (0.04) kcal/mol”. In addition, the “reference ΔG” value is on record as “–4.8 (<0.1) kcal/mol” in assay [2] (ITC at 25 °C) and “–4.9 (0.2) kcal/mol” in assay [2] (ITC at 27 °C). Moreover, in assay [3], the “binding in glycan array screening of ECL” value is listed as “nonbinders”.
